According to patent US9233965B2, “3,4-dihydropyrrolo[1,2-A]pyrazine-2,8(1H)-dicarboxamide derivatives, preparation thereof and therapeutic use thereof for diseases involving casein kinase 1 epsilon and/or casein kinase 1 delta” (SANOFI, priority 2010, dated 2016):

Target: casein kinase 1 epsilon (CK1 epsilon) (Homo sapiens (Human), UniProt P49674)
Test: Test A: inhibitory activity on CK1 epsilon, casein phosphorylation assay on ATP-33P filter plate
Type: biochemical
Settings: IC50 values or IC50 ranges (result of several experiments), ATP 10 μM final
Protocol: The capacity of the compounds of the invention to inhibit the phosphorylation of casein by casein kinase 1 epsilon and/or delta may be evaluated according to the procedures described in document US 2005/0 131 012.
Test A: Inhibitory Activity on CK1 Epsilon Measured by Assay on an ATP-^33P Filter Plate
The effect of the compounds on inhibition of the phosphorylation of casein by the enzyme casein kinase 1 epsilon (CK1 epsilon) is measured, using a casein assay via filtration of ATP-^33P in vitro.
Casein kinase 1 epsilon (0.58 mg/ml) is obtained via fermentation and purification processes performed according to methods that are well known to those skilled in the art, or may also be obtained from Invitrogen Corporation™ (human CK1 epsilon).
The compounds are tested at five different concentrations so as to generate IC50 values, i.e. the concentration at which a compound is capable of inhibiting the enzymatic activity by 50%, or alternatively the percentage of inhibition at a concentration of 10 micromolar.
“U”-bottomed Falcon plates are prepared by placing 5 μL of solutions of the compounds according to the invention at concentrations of 10, 1, 0.1, 0.01 or 0.001 μM in different wells. The solutions of the compounds according to the invention at these various concentrations are prepared by diluting in a test buffer (Tris 50 mM pH 7.5, MgCl2 […], DTT 2 mM and EGTA 1 mM) a stock solution in DMSO at a concentration of 10 mM. Next, 5 μL of dephosphorylated casein are added to a final concentration of 0.2 μg/μL, 20 μL of CK1 epsilon to a final concentration of 3 ng/μL, and 20 μL of ATP-^33P to a final concentration of 0.02 μCi/μL mixed with cold ATP (10 μM final—approximately 2×10^6 CPM per well). The final total test volume per well is equal to 50 μL.
The “U”-bottomed Falcon® test plate mentioned above is vortexed, and then incubated at room temperature for 2 hours. After 2 hours the reaction is stopped by adding an ice-cold solution of 65 μL of cold ATP (2 mM) prepared in test buffer.
100 μL of the reaction mixture are then transferred from the “U”-bottomed Falcon® plate into Millipore® MAPH filter plates, preimpregnated with 25 μL of ice-cold 100% TCA.
The Millipore MAPH filter plates are agitated gently and are left to stand at room temperature for at least 30 minutes to precipitate the proteins.
After 30 minutes, the filter plates are sequentially washed and filtered with 2×150 μL of 20% TCA, 2×150 μL of 10% TCA and 2×150 μL of 5% TCA (6 washes in total per plate/900 μL per well).
The plates are left to dry overnight at room temperature. Next, 40 μL of Microscint-20 Packard® scintillation liquid are added per well and the plates are closed in a leaktight manner. The radiation emitted by each well is then measured for 2 minutes in a TopCount NXT Packard® scintillation counter, in which the values of CPM/well are measured.
The percentage inhibition of the capacity of the enzyme to phosphorylate the substrate (casein) is determined for each concentration of test compound. These inhibition data expressed as percentages are used to calculate the IC50 value for each compound compared with the controls.
The kinetic studies determined the KM value for ATP as being 21 μM in this test system.
Table 2 below gives the IC50 values or the IC50 inhibition ranges (result of several experiments) for the phosphorylation of Casein Kinase 1 Epsilon for a number of compounds according to the invention.

Chain of casein kinase 1 epsilon (CK1 epsilon) (P49674 whole entry): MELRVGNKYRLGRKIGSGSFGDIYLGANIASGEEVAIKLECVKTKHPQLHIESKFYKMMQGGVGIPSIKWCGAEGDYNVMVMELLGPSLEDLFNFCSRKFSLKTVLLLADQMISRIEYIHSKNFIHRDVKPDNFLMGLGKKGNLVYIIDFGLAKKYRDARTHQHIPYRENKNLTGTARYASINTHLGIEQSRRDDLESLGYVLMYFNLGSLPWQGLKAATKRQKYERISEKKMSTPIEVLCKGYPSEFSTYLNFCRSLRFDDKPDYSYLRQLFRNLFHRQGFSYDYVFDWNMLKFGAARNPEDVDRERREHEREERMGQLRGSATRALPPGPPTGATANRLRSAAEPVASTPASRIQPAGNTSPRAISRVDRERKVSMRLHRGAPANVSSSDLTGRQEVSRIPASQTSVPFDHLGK

CC(C)(C)NC(=O)N1CCn2c(c(C(N)=O)c(-c3ccccc3F)c2C2CC2)C1 [Compound 45, N^2-tert-butyl-6-cyclo-propyl-7-(2-fluorophenyl)-3,4-dihydropyrrolo[1,2-a]pyrazine-2,8(1H)-dicarboxamide]
IC50: 12 nM

Cc1ccc(-c2c(C(N)=O)c3n(c2C2CC2)CCN(C(=O)NC(C)(C)C)C3)cc1 [Compound 12, N^2-tert-butyl-6-cyclo-propyl-7-(4-methylphenyl)-3,4-dihydropyrrolo[1,2-a]pyrazine-2,8(1H)-dicarboxamide]
IC50: 12 nM

CC(C)(C)NC(=O)N1CCn2c(c(C(N)=O)c(-c3ccc(N4CCOCC4)cc3)c2C2CC2)C1 [Compound 30, N^2-tert-butyl-6-cyclo-propyl-7-[4-(morpholin-4-yl)phenyl]-3,4-dihydropyrrolo[1,2-a]pyrazine-2,8(1H)-dicarboxamide]
IC50: 331 nM

CC(C)NC(=O)N1CCn2c(c(C(N)=O)c(-c3ccccc3)c2C2CC2)C1 [Compound 7, 6-cyclo-propyl-7-phenyl-N^2-(iso-propyl)-3,4-dihydropyrrolo[1,2-a]pyrazine-2,8(1H)-dicarboxamide]
IC50: 42 nM

CC(C)(C)NC(=O)N1CCn2c(c(C(N)=O)c(-c3ccc(NS(C)(=O)=O)cc3)c2C2CC2)C1 [Compound 29, N^2-tert-butyl-6-cyclo-propyl-7-{4-[(methylsulfonyl)amino]phenyl}-3,4-dihydropyrrolo[1,2-a]pyrazine-2,8(1H)-dicarboxamide]
IC50: 532 nM

CC(C)(C)NC(=O)N1CCn2c(c(C(N)=O)c(-c3cccc(C#N)c3)c2C2CC2)C1 [Compound 21, N^2-tert-butyl-7-(3-cyanophenyl)-6-cyclo-propyl-3,4-dihydropyrrolo[1,2-a]pyrazine-2,8(1H)-dicarboxamide]
IC50: 26 to 46 nM

COc1ccc(-c2c(C(N)=O)c3n(c2C)CCN(C(=O)NC(C)(C)C)C3)cc1 [Compound 4, N^2-tert-butyl-7-(4-methoxyphenyl)-6-methyl-3,4-dihydropyrrolo[1,2-a]pyrazine-2,8(1H)-dicarboxamide]
IC50: 1 to 3 nM

CC(C)(C)NC(=O)N1CCn2c(c(C(N)=O)c(-c3cccc(-n4cccn4)c3)c2C2CC2)C1 [Compound 27, N^2-tert-butyl-6-cyclo-propyl-7-[3-(1H-pyrazol-1-yl)phenyl]-3,4-dihydropyrrolo[1,2-a]pyrazine-2,8(1H)-dicarboxamide]
IC50: 23 nM

CSc1ccc(-c2c(C(N)=O)c3n(c2C2CC2)CCN(C(=O)NC(C)(C)C)C3)cc1 [Compound 48, N^2-tert-butyl-6-cyclo-propyl-7-[4-(methylsulfanyl)phenyl]-3,4-dihydropyrrolo[1,2-a]pyrazine-2,8(1H)-dicarboxamide]
IC50: 1 to 2 nM

CC(C)(C)NC(=O)N1CCn2c(c(C(N)=O)c(-c3ccc(OCc4ccc(F)cc4)cc3)c2C2CC2)C1 [Compound 41, N^2-tert-butyl-6-cyclo-propyl-7-{4-[(4-fluorobenzyl)oxy]phenyl}-3,4-dihydropyrrolo[1,2-a]pyrazine-2,8(1H)-dicarboxamide]
IC50: 42 nM

CC(C)(C)NC(=O)N1CCn2c(c(C(N)=O)c(-c3cccc(F)c3)c2C2CC2)C1 [Compound 46, N^2-tert-butyl-6-cyclo-propyl-7-(3-fluorophenyl)-3,4-dihydropyrrolo[1,2-a]pyrazine-2,8(1H)-dicarboxamide]
IC50: 5 to 11 nM

CC(C)(C)NC(=O)N1CCn2cc(-c3ccccc3)c(C(N)=O)c2C1 [Compound 1, N^2-tert-butyl-7-phenyl-3,4-dihydropyrrolo[1,2-a]pyrazine-2,8(1H)-dicarboxamide]
IC50: 12 to 35 nM

COc1cccc(-c2c(C(N)=O)c3n(c2Cl)CCN(C(=O)NC(C)(C)C)C3)c1 [Compound 62, tert-butyl-6-chloro-7-(3-methoxyphenyl)-3,4-dihydropyrrolo[1,2-a]pyrazine-2,8(1H)-dicarboxamide]
IC50: 1 to 4 nM

NC(=O)c1c(-c2cccc(F)c2)c(Cl)n2c1CN(C(=O)NC1CCC(O)(C(F)(F)F)CC1)CC2 (stereo not drawn) [Compound 85, trans-6-chloro-7-(3-fluorophenyl)-N^2-(4-hydroxy-4-trifluoromethyl-cyclo-hexyl)-3,4-dihydropyrrolo[1,2-a]pyrazine-2,8(1H)-dicarboxamide]
IC50: 2 nM

NC(=O)c1c(-c2ccccc2)c(Cl)n2c1CN(C(=O)NC1CCS(=O)(=O)C1)CC2 (centres unmarked) [Compound 101, 6-chloro-N^2-(1,1-dioxydotetrahydrothiophen-3-yl)-7-phenyl-3,4-dihydropyrrolo[1,2-a]pyrazine-2,8(1H)-dicarboxamide]
IC50: 9 to 24 nM

NC(=O)c1c(-c2cccc(F)c2)c(Cl)n2c1CN(C(=O)NC1CCS(=O)(=O)C1)CC2 (centres unmarked) [Compound 102, 6-chloro-N^2-(1,1-dioxydotetrahydrothiophen-3-yl)-7-(3-fluorophenyl)-3,4-dihydropyrrolo[1,2-a]pyrazine-2,8(1H)-dicarboxamide]
IC50: 4 to 11 nM

CC(C)(C)NC(=O)N1CCn2c(c(C(N)=O)c(-c3ccc(OCc4ccc(F)cc4)c(Cl)c3)c2C2CC2)C1 [Compound 42, N^2-tert-butyl-7-{3-chloro-4-[(4-fluorobenzyl)oxy]phenyl}-6-cyclo-propyl-3,4-dihydropyrrolo[1,2-a]pyrazine-2,8(1H)-dicarboxamide]
IC50: 16 nM

CN(C)c1ccc(-c2c(C(N)=O)c3n(c2C2CC2)CCN(C(=O)NC(C)(C)C)C3)cc1 [Compound 28, N^2-tert-butyl-6-cyclo-propyl-7-[4-(dimethylamino)phenyl]-3,4-dihydropyrrolo[1,2-a]pyrazine-2,8(1H)-dicarboxamide]
IC50: 4 nM

CC(C)(C)NC(=O)N1CCn2c(c(C(N)=O)c(-c3cccc(OC(F)(F)F)c3)c2C2CC2)C1 [Compound 35, N^2-tert-butyl-6-cyclo-propyl-7-[3-(trifluoromethoxy)phenyl]-3,4-dihydropyrrolo[1,2-a]pyrazine-2,8(1H)-dicarboxamide]
IC50: 25 nM

CC(C)(C)NC(=O)N1CCn2c(c(C(N)=O)c(-c3ccc(C4CCCCC4)cc3)c2C2CC2)C1 [Compound 14, N^2-tert-butyl-7-(4-cyclo-hexylphenyl)-6-cyclo-propyl-3,4-dihydropyrrolo[1,2-a]pyrazine-2,8(1H)-dicarboxamide]
IC50: 136 to 1090 nM

CN(C)S(=O)(=O)Nc1cccc(-c2c(C(N)=O)c3n(c2C2CC2)CCN(C(=O)NC(C)(C)C)C3)c1 [Compound 26, N^2-tert-butyl-6-cyclo-propyl-7-{3-[(dimethylsulfamoyl)amino]phenyl}-3,4-dihydropyrrolo[1,2-a]pyrazine-2,8(1H)-dicarboxamide]
IC50: 521 nM

COc1ccc(-c2c(C(N)=O)c3n(c2C2CC2)CCN(C(=O)NC2CC2)C3)cc1 [Compound 6, N^2-6-di-cyclo-propyl-7-(4-methoxyphenyl)-3,4-dihydropyrrolo[1,2-a]pyrazine-2,8(1H)-dicarboxamide]
IC50: 28 to 57 nM

NC(=O)c1c(-c2ccccc2)c(C2CC2)n2c1CN(C(=O)NCC1CCCCC1)CC2 [Compound 50, N^2-(cyclo-hexylmethyl)-6-cyclo-propyl-7-phenyl-3,4-dihydropyrrolo[1,2-a]pyrazine-2,8(1H)-dicarboxamide]
IC50: 25 nM

CC(C)(C)NC(=O)N1CCn2c(c(C(N)=O)c(-c3ccc(OC(F)(F)F)cc3)c2C2CC2)C1 [Compound 44, N^2-tert-butyl-6-cyclo-propyl-7-[4-(trifluoromethoxy)phenyl]-3,4-dihydropyrrolo[1,2-a]pyrazine-2,8(1H)-dicarboxamide]
IC50: 33 nM

CCCCOc1ccc(-c2c(C(N)=O)c3n(c2C2CC2)CCN(C(=O)NC(C)(C)C)C3)cc1 [Compound 38, 7-(4-butoxyphenyl)-N^2-tert-butyl-6-cyclo-propyl-3,4-dihydropyrrolo[1,2-a]pyrazine-2,8(1H)-dicarboxamide]
IC50: 152 nM

CC(C)(C)NC(=O)N1CCn2c(c(C(N)=O)c(-c3ccc(C(=O)N4CCCC4)cc3)c2C2CC2)C1 [Compound 19, N^2-tert-butyl-6-cyclo-propyl-7-[4-(pyrrolidin-1-ylcarbonyl)phenyl]-3,4-dihydropyrrolo[1,2-a]pyrazine-2,8(1H)-dicarboxamide]
IC50: 587 nM
